Laboratory results taken from patent US8193191B2, “Urotensin II receptor antagonists” (Janssen Pharmaceutica N.V., priority 2006, dated 2012).

Legend:
[1] = target: T1, Human UII receptor, 6D9 human rhabdomyosarcoma cells (Homo sapiens, UniProt Q9UKP6); experiment: Human UII Calcium Mobilization Assay; format: cell-based; conditions: average value, FLIPR TETRA, read-out: Human UII Ca^+ Mobilization Average IC50
T1 construct: 6D9: isolated by dilution subcloning of RMS13 cells, ATCC® Number: CRL-2061; host or cells: 6D9 human rhabdomyosarcoma cells (subclone of RMS13)
T1 sequence (Q9UKP6 1-389): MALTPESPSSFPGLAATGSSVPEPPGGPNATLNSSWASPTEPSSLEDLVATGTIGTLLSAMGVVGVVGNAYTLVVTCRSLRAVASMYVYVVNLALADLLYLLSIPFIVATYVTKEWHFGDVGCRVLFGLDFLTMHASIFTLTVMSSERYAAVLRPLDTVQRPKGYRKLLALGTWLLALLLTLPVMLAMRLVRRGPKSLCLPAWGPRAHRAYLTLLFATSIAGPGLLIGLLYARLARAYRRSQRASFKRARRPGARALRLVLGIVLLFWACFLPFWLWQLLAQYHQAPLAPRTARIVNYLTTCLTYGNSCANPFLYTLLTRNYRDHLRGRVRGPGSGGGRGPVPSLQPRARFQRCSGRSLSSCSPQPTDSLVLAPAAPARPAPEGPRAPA
Method: 6D9 human rhabdomyosarcoma cells were seeded into tissue culture treated 384-well black-walled clear bottom plates (3712, Corning Incorporated, Corning, N.Y.) at 8,000 cells/well in 25 μL of culture medium, and maintained in an incubator (5% CO2 at 37° C.) for 22 hrs prior to the calcium mobilization assay. 25 μL of dye solution was added to the wells such that the final liquid volume before agonist/antagonist treatment was 50 μL for all assays. The cell plates were incubated at 37° C. for 45 minutes and the fluorescence intensity was measured on a Fluorometric Imaging Plate Reader (FLIPR^TETRA, Molecular Devices, Sunnyvale, Calif.).
Antagonist and agonist U-II were added at room temperature on the FLIPR^TETRA, and the fluorescence intensity before and after addition was measured over a period of 4 minutes. The dye incubation time and temperature as well as instrument setting was adjusted so the fluorescence intensity could be compared between plates on the same day. EC50 and IC50 were analyzed using GraphPad Prism 4 software (GraphPad Software Inc., San Diego, Calif.).
Materials and reagent Preparation: Human Rhabdomyosarcoma cells (6D9: isolated by dilution subcloning of RMS13 cells, ATCC® Number: CRL-2061, American Type Culture Collection ATCC, Manassas, Va.) was maintained in RPMI-1640 medium (30-2001, ATCC, Manassas, Va.) supplemented with 10% (v/v) Fetal Bovine Serum (SH30071.03, Hyclone, Logan, Utah).
Dye preparation: BD™ Calcium Assay Kit (80500-301, BD Biosciences, Rockville, Md.) was prepared according to the manufacture's instruction in 1× Hanks' balanced salt solution (HBSS, 21-023-CV, Mediatech, Inc. Herndon, Va.) containing 20 mM HEPES buffer (25-060-CI, Mediatech, Inc. Herndon, Va.). Final dye loading conditions included 1.25 mM probenecid (P36400, Invitrogen, Carlsbad, Calif.) and 0.01% FBS.
Urantide (PUT-3639-PI, Peptide International, Louisville, Ky.) was prepared in water at 5 mM. For assays, U-II agonist, U-II antagonist and urantide were diluted with HBSS/HEPES containing 0.01% FBS.
Test compounds were dissolved in DMSO at 10 mM concentration. The serial dilutions were carried out in HBSS/HEPES. The highest final DMSO concentration was at 0.1%.

[2] = target: T2, rat GPR14 (U-II receptor) (Rattus norvegicus, UniProt P49684); experiment: Rat UII Calcium Mobilization FLIPR Assay; format: cell-based; conditions: average value for the compound tested; read-out: Rat UII FLIPR Average IC50
T2 construct: expressed in transfected cells
T2 sequence (P49684 1-386): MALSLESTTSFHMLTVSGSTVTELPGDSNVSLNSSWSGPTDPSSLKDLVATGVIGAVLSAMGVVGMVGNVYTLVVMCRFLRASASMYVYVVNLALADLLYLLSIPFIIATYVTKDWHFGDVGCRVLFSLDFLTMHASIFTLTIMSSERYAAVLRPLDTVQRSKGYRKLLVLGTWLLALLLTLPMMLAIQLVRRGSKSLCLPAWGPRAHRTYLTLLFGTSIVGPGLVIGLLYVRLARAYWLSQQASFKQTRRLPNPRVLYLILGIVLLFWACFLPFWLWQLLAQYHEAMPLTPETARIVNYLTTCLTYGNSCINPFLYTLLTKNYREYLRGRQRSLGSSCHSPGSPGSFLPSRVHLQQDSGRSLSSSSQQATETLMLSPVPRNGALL
Procedure, shortened: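 Fluorescent calcium signals were recorded at room temperature (23° C) by FLIPR. Stable rat U-II receptor CHO lines had been dye-loaded for 1 h at 37° C in pH 7.4 HBSS containing 20 mM HEPES, 0.1% BSA and 2.5 mM probenecid.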

[3] = target: T3, endogenous human UII receptor (Homo sapiens, UniProt Q9UKP6); experiment: Human Radioligand Binding Assay ((^125I)-U-II binding to human skeletal muscle myoblasts)
T3 sequence (Q9UKP6 1-389): T1 sequence (Q9UKP6 1-389)

| Compound | IC50 [1] [nM] | IC50 [2] [nM] | Ki [3] [nM] |
| --- | --- | --- | --- |
| COc1ccc(CN2C(=O)c3cccc(N4CCN(C5C6CC7CC(C6)CC5C7)CC4)c3C2=O)cc1OC (stereo not shown) [Cpd 87, 4-(4-adamantan-2-yl-piperazin-1-yl)-2-(3,4-dimethoxy-benzyl)-isoindole-1,3-dione] | 1500 | 480 |  |
| COC(=O)c1csc(S(=O)(=O)NCCCC(c2ccc(OC)c(OC)c2)N2C(=O)c3cccc(N4CCN([C@H](C)c5ccccc5)CC4)c3C2=O)c1OC (stereo partly drawn) [Cpd 88, 5-(4-(3,4-dimethoxy-phenyl)-4-{1,3-dioxo-4-[4-(1R)-(1-phenyl-ethyl)-piperazin-1-yl]-1,3-dihydro-isoindol-2-yl}-butylsulfamoyl)-4-methoxy-thiophene-3-carboxylic acid methyl ester] | > 3000 | 320 | 350 |
| COc1ccc(C(CCCNS(=O)(=O)c2cc(C)oc2C(F)(F)F)N2C(=O)c3cccc(N4CCN([C@H](C)c5ccccc5)CC4)c3C2=O)cc1OC (stereo partly drawn) [Cpd 89, 5-methyl-2-trifluoromethyl-furan-3-sulfonic acid (4-(3,4-dimethoxy-phenyl)-4-{1,3-dioxo-4-[4-(1R)-(1-phenyl-ethyl)-piperazin-1-yl]-1,3-dihydro-isoindol-2-yl}-butyl)-amide] | > 10000 | 540 | 890 |
| COC(=O)c1ccc(S(=O)(=O)NCCCC(c2ccc(OC)c(OC)c2)N2C(=O)c3cccc(N4CCN([C@H](C)c5ccccc5)CC4)c3C2=O)o1 (stereo partly drawn) [Cpd 90, 5-(4-(3,4-dimethoxy-phenyl)-4-{1,3-dioxo-4-[4-(1R)-(1-phenyl-ethyl)-piperazin-1-yl]-1,3-dihydro-isoindol-2-yl}-butylsulfamoyl)-furan-2-carboxylic acid methyl ester] | 560 | 130 | 320 |
| COc1ccc(C(CCCNS(=O)(=O)c2c(C)nn(C)c2C)N2C(=O)c3cccc(N4CCN([C@H](C)c5ccccc5)CC4)c3C2=O)cc1OC (stereo partly drawn) [Cpd 91, 1,3,5-trimethyl-1H-pyrazole-4-sulfonic acid (4-(3,4-dimethoxy-phenyl)-4-{1,3-dioxo-4-[4-(1R)-(1-phenyl-ethyl)-piperazin-1-yl]-1,3-dihydro-isoindol-2-yl}-butyl)-amide] | 310 | 15 | 150 |
| COc1ccc(C(CCCNS(=O)(=O)c2c(Cl)nc3sccn23)N2C(=O)c3cccc(N4CCN([C@H](C)c5ccccc5)CC4)c3C2=O)cc1OC (stereo partly drawn) [Cpd 93, 6-chloro-imidazo[2,1-b]thiazole-5-sulfonic acid (4-(3,4-dimethoxy-phenyl)-4-{1,3-dioxo-4-[4-(1R)-(1-phenyl-ethyl)-piperazin-1-yl]-1,3-dihydro-isoindol-2-yl}-butyl)-amide] | > 3000 | 180 | 460 |
| COc1ccc(C(CCNC(=O)Cc2ccncc2)N2C(=O)c3cccc(N4CCN([C@H](C)c5ccccc5)CC4)c3C2=O)cc1OC (stereo partly drawn) [Cpd 103, N-(3-(3,4-dimethoxy-phenyl)-3-{1,3-dioxo-4-[4-(1R)-(1-phenyl-ethyl)-piperazin-1-yl]-1,3-dihydro-isoindol-2-yl}-propyl)-2-pyridin-4-yl-acetamide] | 590 | 35 |  |
| COc1ccc([C@@H](CCCNS(=O)(=O)c2cnc(C)n2C)N2C(=O)c3cccc(N4CCN([C@H](C)c5ccccc5)CC4)c3C2=O)cc1OC [Cpd 127, (R)-2,3-dimethyl-3H-imidazole-4-sulfonic acid (4-(3,4-dimethoxy-phenyl)-4-{1,3-dioxo-4-[4-(1R)-(1-phenyl-ethyl)-piperazin-1-yl]-1,3-dihydro-isoindol-2-yl}-butyl)-amide] | 350 | 6.4 |  |

More lines, now with the values ahead:

| IC50 [1] [nM] | IC50 [2] [nM] | Ki [3] [nM] | Compound |
| --- | --- | --- | --- |
| 1100 | 97 |  | COc1ccc([C@@H](CCCNc2ccccn2)N2C(=O)c3cccc(N4CCN([C@H](C)c5ccccc5)CC4)c3C2=O)cc1OC [Cpd 142, (R)-2-[1-(3,4-dimethoxy-phenyl)-4-(pyridin-2-ylamino)-butyl]-4-[4-(1R)-(1-phenyl-ethyl)-piperazin-1-yl]-isoindole-1,3-dione] |
| 690 | 28 |  | COc1ccc([C@@H](CCCNC(=O)CN(C)C)N2C(=O)c3cccc(N4CCN([C@H](C)c5ccccc5)CC4)c3C2=O)cc1OC [Cpd 143, (R)-N-(4-(3,4-dimethoxy-phenyl)-4-{1,3-dioxo-4-[4-(1R)-(1-phenyl-ethyl)-piperazin-1-yl]-1,3-dihydro-isoindol-2-yl}-butyl)-2-dimethylamino-acetamide] |
| > 10000 | 2100 |  | COc1ccc([C@@H](CCCNS(=O)(=O)c2cccs2)N2C(=O)c3cccc(N4CCN(CC(F)(F)F)CC4)c3C2=O)cc1OC [Cpd 195, (R)-thiophene-2-sulfonic acid (4-(3,4-dimethoxy-phenyl)-4-{1,3-dioxo-4-[4-(2,2,2-trifluoro-ethyl)-piperazin-1-yl]-1,3-dihydro-isoindol-2-yl}-butyl)-amide] |
| > 10000 | 4000 |  | COc1ccc([C@@H](CCCNC(=O)C(C)C)N2C(=O)c3cccc(OC4CCN(C)C4)c3C2=O)cc1OC (stereo partly drawn) [Cpd 200, (R)-N-{4-(3,4-dimethoxy-phenyl)-4-[4-(1-methyl-pyrrolidin-3-yloxy)-1,3-dioxo-1,3-dihydro-isoindol-2-yl]-butyl}-isobutyramide] |
| 200 | 7.5 |  | CCN1CCN(c2cccc3c2C(=O)N([C@H](CCCNS(=O)(=O)c2c(C)nn(C)c2C)c2ccc(OC)c(OC)c2)C3=O)CC1 [Cpd 204, (R)-1,3,5-trimethyl-1H-pyrazole-4-sulfonic acid {4-(3,4-dimethoxy-phenyl)-4-[4-(4-ethyl-piperazin-1-yl)-1,3-dioxo-1,3-dihydro-isoindol-2-yl]-butyl}-amide] |
| > 3000 | 3700 |  | COc1ccc([C@@H](CCCNC(=O)C(C)C)N2C(=O)c3cccc(OC4CCN(C)CC4)c3C2=O)cc1OC [Cpd 205, (R)-N-{4-(3,4-dimethoxy-phenyl)-4-[4-(1-methyl-piperidin-4-yloxy)-1,3-dioxo-1,3-dihydro-isoindol-2-yl]-butyl}-isobutyramide] |
| 4500 | 320 |  | CCN1CCN(c2cccc3c2C(=O)N([C@H](CCCOS(=O)(=O)c2cccs2)c2ccc(OC)c(OC)c2)C3=O)CC1 [Cpd 208, (R)-thiophene-2-sulfonic acid 4-(3,4-dimethoxy-phenyl)-4-[4-(4-ethyl-piperazin-1-yl)-1,3-dioxo-1,3-dihydro-isoindol-2-yl]-butyl ester] |
| 3800 |  | 290 | CCN1CCN(c2cccc3c2C(=O)N([C@H](CCCOS(=O)(=O)N(C)C)c2ccc(OC)c(OC)c2)C3=O)CC1 [Cpd 209, (R)-dimethyl-sulfamic acid 4-(3,4-dimethoxy-phenyl)-4-[4-(4-ethyl-piperazin-1-yl)-1,3-dioxo-1,3-dihydro-isoindol-2-yl]-butyl ester] |
